Target: T1, TLR9 (Homo sapiens, UniProt Q9NR96)
T1 construct: Fresh blood was collected from normal human donors; endogenous in cells; host or cells: human PBMCs from fresh donor blood
T1 sequence (Q9NR96 26-1032): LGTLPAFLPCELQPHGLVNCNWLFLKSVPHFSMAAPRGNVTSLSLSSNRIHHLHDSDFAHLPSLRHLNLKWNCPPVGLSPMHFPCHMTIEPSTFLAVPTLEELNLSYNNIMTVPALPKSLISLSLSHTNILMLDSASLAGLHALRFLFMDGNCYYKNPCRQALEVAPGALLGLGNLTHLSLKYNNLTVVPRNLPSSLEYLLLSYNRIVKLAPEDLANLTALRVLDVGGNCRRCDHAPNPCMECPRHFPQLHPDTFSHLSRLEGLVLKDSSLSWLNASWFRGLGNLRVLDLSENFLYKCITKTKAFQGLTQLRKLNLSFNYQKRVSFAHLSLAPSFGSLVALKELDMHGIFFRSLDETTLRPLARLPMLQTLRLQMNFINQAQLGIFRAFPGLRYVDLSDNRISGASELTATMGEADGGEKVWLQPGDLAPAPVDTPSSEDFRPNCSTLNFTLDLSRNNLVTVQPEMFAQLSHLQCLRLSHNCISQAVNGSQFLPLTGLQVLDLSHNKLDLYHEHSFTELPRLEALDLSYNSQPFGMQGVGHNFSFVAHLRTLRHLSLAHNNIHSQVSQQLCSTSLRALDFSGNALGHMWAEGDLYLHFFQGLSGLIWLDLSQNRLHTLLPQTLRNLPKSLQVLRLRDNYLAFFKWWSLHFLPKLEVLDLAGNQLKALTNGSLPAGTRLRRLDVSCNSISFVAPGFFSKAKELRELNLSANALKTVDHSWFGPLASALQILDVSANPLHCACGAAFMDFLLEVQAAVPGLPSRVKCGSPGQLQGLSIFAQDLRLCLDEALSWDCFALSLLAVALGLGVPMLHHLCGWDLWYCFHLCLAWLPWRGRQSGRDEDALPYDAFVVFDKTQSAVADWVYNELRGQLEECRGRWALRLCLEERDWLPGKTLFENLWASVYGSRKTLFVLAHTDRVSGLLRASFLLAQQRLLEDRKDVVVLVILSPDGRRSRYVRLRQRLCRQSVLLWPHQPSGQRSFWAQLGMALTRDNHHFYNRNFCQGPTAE
Assay: huPBMC TLR9 Antagonist IFNα Assay
Format: cell-based
Conditions: human PBMCs stimulated with ODN2216 0.3 μM, 14-16 hrs; IFNα2b AlphaLISA read-out
In short: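 Human PBMCs from fresh donor blood (150,000 cells/well) stimulated 14–16 h at 37 °C with DOTAP-complexed ssRNA40 (final 1 μg/ml for TLR8, 10 μg/mL for TLR7) or ODN2216 (final 0.3 μM, TLR9), 0.25% DMSO, ten-point 1/3 compound dilutions. Supernatant IL-6 read by HTRF (TLR8); IFNα by IFNα2b AlphaLISA (TLR7/TLR9).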

IC50 [µM] | Structure (SMILES)
> 10 | Cc1nc(N2CCc3c(c(C)nn3CC34CCC(N(C5CCC5)C5CCC5)(CC3)CC4)C2)c2c(n1)c(C)nn2C [compound 28, N,N-dicyclobutyl-4-((3-methyl-5-(1,3,5-trimethyl-1H-pyrazolo[4,3-d]pyrimidin-7-yl)-4,5,6,7-tetrahydro-1H-pyrazolo[4,3-c]pyridin-1-yl)methyl)bicyclo[2.2.2]octan-1-amine]
> 10 | Cc1nc(N2CCc3c(c(C)nn3CC34CCC(N5CCCCC5)(CC3)CC4)C2)c2cn[nH]c2n1 [compound 29, 6-methyl-4-(3-methyl-1-((4-(piperidin-1-yl)bicyclo[2.2.2]octan-1-yl)methyl)-6,7-dihydro-1H-pyrazolo[4,3-c]pyridin-5(4H)-yl)-1H-pyrazolo[3,4-d]pyrimidine]
> 10 | Cc1nc(N2CCc3c(c(C)nn3CC34CCC(N5CCCC5)(CC3)CC4)C2)c2cn[nH]c2n1 [compound 30, 6-methyl-4-(3-methyl-1-((4-(pyrrolidin-1-yl)bicyclo[2.2.2]octan-1-yl)methyl)-6,7-dihydro-1H-pyrazolo[4,3-c]pyridin-5(4H)-yl)-1H-pyrazolo[3,4-d]pyrimidine]
2.34 | Cc1nc(N2CCc3c(c(C)nn3CC34CCC(NCC5(CO)COC5)(CC3)CC4)C2)c2c(n1)c(C)nn2C [compound 31, (3-(((4-((3-methyl-5-(1,3,5-trimethyl-1H-pyrazolo[4,3-d]pyrimidin-7-yl)-4,5,6,7-tetrahydro-1H-pyrazolo[4,3-c]pyridin-1-yl)methyl)bicyclo[2.2.2]octan-1-yl)amino)methyl)oxetan-3-yl)methanol]
> 10 | Cc1nc(N2CCc3c(c(C)nn3CC34CCC(NC(=O)[C@@H]5COCCN5)(CC3)CC4)C2)c2c(n1)c(C)nn2C [compound 33, (S)-N-(4-((3-methyl-5-(1,3,5-trimethyl-1H-pyrazolo[4,3-d]pyrimidin-7-yl)-4,5,6,7-tetrahydro-1H-pyrazolo[4,3-c]pyridin-1-yl)methyl)bicyclo[2.2.2]octan-1-yl)morpholine-3-carboxamide]
5.7 | Cc1nc(N2CCc3c(c(C)nn3CC34CCC(NC(=O)[C@@H]5CNCCO5)(CC3)CC4)C2)c2c(n1)c(C)nn2C [compound 34, (S)-N-(4-((3-methyl-5-(1,3,5-trimethyl-1H-pyrazolo[4,3-d]pyrimidin-7-yl)-4,5,6,7-tetrahydro-1H-pyrazolo[4,3-c]pyridin-1-yl)methyl)bicyclo[2.2.2]octan-1-yl)morpholine-2-carboxamide]
4.97 | Cc1nc(N2CCc3c(c(C)nn3CC34CCC(NC(=O)[C@H]5CNCCO5)(CC3)CC4)C2)c2c(n1)c(C)nn2C [compound 36, (R)-N-(4-((3-methyl-5-(1,3,5-trimethyl-1H-pyrazolo[4,3-d]pyrimidin-7-yl)-4,5,6,7-tetrahydro-1H-pyrazolo[4,3-c]pyridin-1-yl)methyl)bicyclo[2.2.2]octan-1-yl)morpholine-2-carboxamide]
> 10 | Cc1nc(N2CCc3c(c(C)nn3CC34CCC(N5CCOCC5)(CC3)CC4)C2)c2c(C)noc2n1 [compound 37, 3,6-dimethyl-4-(3-methyl-1-((4-morpholinobicyclo[2.2.2]octan-1-yl)methyl)-6,7-dihydro-1H-pyrazolo[4,3-c]pyridin-5(4H)-yl)isoxazolo[5,4-d]pyrimidine]
> 10 | Cc1nc(N2CCc3c(c(C)nn3CC34CCC(N5CCCCC5)(CC3)CC4)C2)c2c(n1)c(C)nn2C [compound 38, 1,3,5-trimethyl-7-(3-methyl-1-((4-(piperidin-1-yl)bicyclo[2.2.2]octan-1-yl)methyl)-6,7-dihydro-1H-pyrazolo[4,3-c]pyridin-5(4H)-yl)-1H-pyrazolo[4,3-d]pyrimidine]
> 10 | Cc1nc(N2CCc3c(c(C)nn3CC34CCC(N5CCCCC5)(CC3)CC4)C2)c2cnn(C)c2n1 [compound 39, 1,6-dimethyl-4-(3-methyl-1-((4-(piperidin-1-yl)bicyclo[2.2.2]octan-1-yl)methyl)-6,7-dihydro-1H-pyrazolo[4,3-c]pyridin-5(4H)-yl)-1H-pyrazolo[3,4-c]pyrimidine]
2.52 | [2H]C([2H])([2H])N(C([2H])([2H])[2H])C12CCC(Cn3nc(C)c4c3CCN(c3nc(C)nc5c(C)nn(C)c35)C4)(CC1)CC2 [compound 40, 4-((3-methyl-5-(1,3,5-trimethyl-1H-pyrazolo[4,3-d]pyrimidin-7-yl)-4,5,6,7-tetrahydro-1H-pyrazolo[4,3-c]pyridin-1-yl)methyl)-N,N-bis(trideuteromethyl)bicyclo[2.2.2]octan-1-amine]
0.817 | Cc1nn(CC23CCC(N)(CC2)CC3)c2c1CN(c1ccnc3[nH]ncc13)CC2 [compound 41, 4-((3-methyl-5-(1H-pyrazolo[3,4-b]pyridin-4-yl)-4,5,6,7-tetrahydro-1H-pyrazolo[4,3-c]pyridin-1-yl)methyl)bicyclo[2.2.2]octan-1-amine]
0.472 | Cc1c2c(nn1CC13CCC(N)(CC1)CC3)CCN(c1ccnc3[nH]ncc13)C2 [compound 42, 4-((3-methyl-5-(1H-pyrazolo[3,4-b]pyridin-4-yl)-4,5,6,7-tetrahydro-2H-pyrazolo[4,3-c]pyridin-2-yl)methyl)bicyclo[2.2.2]octan-1-amine]
1.21 | Cc1cc(N2CCc3c(c(C)nn3CC34CCC(N)(CC3)C4)C2)c2cnn(C)c2n1 [compound 44, 4-((5-(1,6-dimethyl-1H-pyrazolo[3,4-b]pyridin-4-yl)-3-methyl-4,5,6,7-tetrahydro-1H-pyrazolo[4,3-c]pyridin-1-yl)methyl)bicyclo[2.2.1]heptan-1-amine]
2.06 | Cc1cc(N2CCc3c(c(C(F)(F)F)nn3CC34CCC(N)(CC3)CC4)C2)c2cnn(C)c2n1 [compound 45, 4-((5-(1,6-dimethyl-1H-pyrazolo[3,4-b]pyridin-4-yl)-3-(trifluoromethyl)-4,5,6,7-tetrahydro-1H-pyrazolo[4,3-c]pyridin-1-yl)methyl)bicyclo[2.2.2]octan-1-amine]
2.84 | Cc1cc(N2CCc3c(c(C)nn3CC34CCC(NCC(=O)N5CCCCC5)(CC3)CC4)C2)c2cnn(C)c2n1 [compound 99, 2-((4-((5-(1,6-dimethyl-1H-pyrazolo[3,4-b]pyridin-4-yl)-3-methyl-4,5,6,7-tetrahydro-1H-pyrazolo[4,3-c]pyridin-1-yl)methyl)bicyclo[2.2.2]octan-1-yl)amino)-1-(piperidin-1-yl)ethanone]
1.36 | Cc1cc(N2CCc3c(c(C)nn3CC34CCC(NC(=O)CN5CCCC5)(CC3)CC4)C2)c2cnn(C)c2n1 [compound 100, N-(4-((5-(1,6-dimethyl-1H-pyrazolo[3,4-b]pyridin-4-yl)-3-methyl-4,5,6,7-tetrahydro-1H-pyrazolo[4,3-c]pyridin-1-yl)methyl)bicyclo[2.2.2]octan-1-yl)-2-(pyrrolidin-1-yl)acetamide]
1.24 | COCCNC12CCC(Cn3nc(C)c4c3CCN(c3cc(C)nc5c3cnn5C)C4)(CC1)OC2 [compound 102, 1-((5-(1,6-dimethyl-1H-pyrazolo[3,4-b]pyridin-4-yl)-3-methyl-4,5,6,7-tetrahydro-1H-pyrazolo[4,3-c]pyridin-1-yl)methyl)-N-(2-methoxyethyl)-2-oxabicyclo[2.2.2]octan-4-amine]
1.63 | Cc1cc(N2CCc3c(c(C)nn3CC34CCC(NC(=O)CCN(C)C)(CC3)CC4)C2)c2cnn(C)c2n1 [compound 105, N-(4-((5-(1,6-dimethyl-1H-pyrazolo[3,4-b]pyridin-4-yl)-3-methyl-4,5,6,7-tetrahydro-1H-pyrazolo[4,3-c]pyridin-1-yl)methyl)bicyclo[2.2.2]octan-1-yl)-3-(dimethylamino)propanamide]
2.66 | Cc1cc(N2CCc3c(c(C)nn3CC34CCC(NCC(=O)N5CCCC5)(CC3)CC4)C2)c2cnn(C)c2n1 [compound 106, 2-((4-((5-(1,6-dimethyl-1H-pyrazolo[3,4-b]pyridin-4-yl)-3-methyl-4,5,6,7-tetrahydro-1H-pyrazolo[4,3-c]pyridin-1-yl)methyl)bicyclo[2.2.2]octan-1-yl)amino)-1-(pyrrolidin-1-yl)ethanone]
1.71 | Cc1cc(N2CCc3c(c(C)nn3CC34CCC(N5CCO[C@H](C)C5)(CC3)CC4)C2)c2cnn(C)c2n1 [compound 107, (R)-4-(4-((5-(1,6-dimethyl-1H-pyrazolo[3,4-b]pyridin-4-yl)-3-methyl-4,5,6,7-tetrahydro-1H-pyrazolo[4,3-c]pyridin-1-yl)methyl)bicyclo[2.2.2]octan-1-yl)-2-methylmorpholine]

Source: US20240376099A1, “COMPOUNDS AND COMPOSITIONS AS INHIBITORS OF ENDOSOMAL TOLL-LIKE RECEPTORS” (Novartis AG, priority 2016, published 2024)
